Measurements reported in ChEMBL document CHEMBL2331477, “Effect of helical conformation and side chain structure on γ-secretase inhibition by β-peptide foldamers: insight into substrate recognition” (J Med Chem, 2013).
Active and inactive are the calls of the source. No cut-off for these calls is given here.

Tests used:
[1] = biological target: T1, Gamma-secretase (Homo sapiens) (UniProt Q96BI3+Q9NZ42+Q8WW43+P49768+Q92542+P49810); assay: Inhibition of gamma-secretase (unknown origin) expressed in N2a NL/N cells coexpressing betaAPPNL and NotchdeltaE assessed as Abeta40 secretion at 100 nM by ELISA; assay type: cell-based
[2] = biological target: T1, Gamma-secretase (Homo sapiens); assay: Inhibition of gamma-secretase (unknown origin) expressed in N2a NL/N cells coexpressing betaAPPNL and NotchdeltaE assessed as Abeta42 secretion at 100 nM by ELISA; assay type: cell-based

Row | inhibition [1] | inhibition [2] | SMILES
1 | inactive | inactive | CC(=O)N[C@H]1CCC[C@@H]1C(=O)N[C@H]1CCC[C@@H]1C(=O)N[C@H]1CCC[C@@H]1C(=O)N[C@H]1CCC[C@@H]1C(=O)N[C@H]1CCC[C@@H]1C(=O)N[C@H](CC(=O)N[C@H]1CCC[C@@H]1C(=O)N[C@H]1CCC[C@@H]1C(=O)N[C@H]1CCC[C@@H]1C(=O)N[C@H]1CCC[C@@H]1C(=O)N[C@H]1CCC[C@@H]1C(=O)N[C@H]1CCC[C@@H]1C(N)=O)Cc1ccc(O)cc1
2 | inactive | inactive | CC(=O)N[C@H]1CCC[C@@H]1C(=O)N[C@H]1CCC[C@@H]1C(=O)N[C@H]1CCC[C@@H]1C(=O)N[C@H]1CCC[C@@H]1C(=O)N[C@H]1CCC[C@@H]1C(=O)N[C@H]1CCC[C@@H]1C(=O)N[C@H]1CCC[C@@H]1C(=O)N[C@H]1CCC[C@@H]1C(=O)N[C@@H](CCCCN)CC(=O)N[C@H]1CCC[C@@H]1C(=O)N[C@H]1CCC[C@@H]1C(=O)N[C@H]1CCC[C@@H]1C(N)=O
3 | inactive | inactive | CC(=O)N[C@H]1CCC[C@@H]1C(=O)N[C@H]1CCC[C@@H]1C(=O)N[C@H]1CCC[C@@H]1C(=O)N[C@H]1CCC[C@@H]1C(=O)N[C@H]1CCC[C@@H]1C(=O)N[C@H]1CCC[C@@H]1C(=O)N[C@H]1CCC[C@@H]1C(=O)N[C@H]1CCC[C@@H]1C(=O)N[C@@H](CCC(N)=O)CC(=O)N[C@H]1CCC[C@@H]1C(=O)N[C@H]1CCC[C@@H]1C(=O)N[C@H]1CCC[C@@H]1C(N)=O
4 | inactive | inactive | CC(=O)N[C@H]1CCC[C@@H]1C(=O)N[C@H]1CCC[C@@H]1C(=O)N[C@H]1CCC[C@@H]1C(=O)N[C@H]1CCC[C@@H]1C(=O)N[C@H]1CCC[C@@H]1C(=O)N[C@H](CO)CC(=O)N[C@H]1CCC[C@@H]1C(=O)N[C@H]1CCC[C@@H]1C(=O)N[C@H]1CCC[C@@H]1C(=O)N[C@H]1CCC[C@@H]1C(=O)N[C@H]1CCC[C@@H]1C(=O)N[C@H]1CCC[C@@H]1C(N)=O
5 | inactive | inactive | CC(=O)N[C@H]1CCC[C@@H]1C(=O)N[C@H]1CCC[C@@H]1C(=O)N[C@H]1CCC[C@@H]1C(=O)N[C@H]1CCC[C@@H]1C(=O)N[C@H]1CCC[C@@H]1C(=O)N[C@@H](CCCCN)CC(=O)N[C@H]1CCC[C@@H]1C(=O)N[C@H]1CCC[C@@H]1C(=O)N[C@H]1CCC[C@@H]1C(=O)N[C@H]1CCC[C@@H]1C(=O)N[C@H]1CCC[C@@H]1C(=O)N[C@H]1CCC[C@@H]1C(N)=O
6 | inactive | inactive | CC(=O)N[C@H]1CCC[C@@H]1C(=O)N[C@H]1CCC[C@@H]1C(=O)N[C@H]1CCC[C@@H]1C(=O)N[C@H]1CCC[C@@H]1C(=O)N[C@H]1CCC[C@@H]1C(=O)N[C@H]1CCC[C@@H]1C(=O)N[C@H]1CCC[C@@H]1C(=O)N[C@H]1CCC[C@@H]1C(=O)N[C@H](CC(=O)N[C@H]1CCC[C@@H]1C(=O)N[C@H]1CCC[C@@H]1C(=O)N[C@H]1CCC[C@@H]1C(N)=O)CC(C)C
7 | inactive | inactive | CC(=O)N[C@H]1CCC[C@@H]1C(=O)N[C@H]1CCC[C@@H]1C(=O)N[C@H](CC(=O)N[C@H]1CCC[C@@H]1C(=O)N[C@H]1CCC[C@@H]1C(=O)N[C@H]1CCC[C@@H]1C(=O)N[C@H]1CCC[C@@H]1C(=O)N[C@H]1CCC[C@@H]1C(=O)N[C@H]1CCC[C@@H]1C(=O)N[C@H]1CCC[C@@H]1C(=O)N[C@H]1CCC[C@@H]1C(=O)N[C@H]1CCC[C@@H]1C(N)=O)Cc1ccc(O)cc1
8 | Active | Active | CC(=O)N[C@H]1CCC[C@@H]1C(=O)N[C@H]1CCC[C@@H]1C(=O)N[C@@H](CCCCN)CC(=O)N[C@H]1CCC[C@@H]1C(=O)N[C@H]1CCC[C@@H]1C(=O)N[C@H]1CCC[C@@H]1C(=O)N[C@H]1CCC[C@@H]1C(=O)N[C@H]1CCC[C@@H]1C(=O)N[C@H]1CCC[C@@H]1C(=O)N[C@H]1CCC[C@@H]1C(=O)N[C@H]1CCC[C@@H]1C(=O)N[C@H]1CCC[C@@H]1C(N)=O
